Results as given in PubChem BioAssay (NCI).
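Results reflect a 48-hour exposure of cells in 96-well plates to compound at five concentrations. The concentration for 50% growth inhibition is given as GI50. Definition used: TGI = concentration required for complete inhibition of growth.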

What was measured:
Experiment in all cases: NCI anticancer screen, dose series, 48 h
CAKI-1 renal = system: CAKI-1 renal
MDA-MB-435 = system: MDA-MB-435
NCI/ADR-RES ovarian = system: NCI/ADR-RES ovarian
A549 NSCLC = system: A549 NSCLC
HS 578T breast = system: HS 578T breast
SK-MEL-5 melanoma = system: SK-MEL-5 melanoma
NCI-H226 lung = system: NCI-H226 lung
SNB-75 CNS = system: SNB-75 CNS
MALME-3M melanoma = system: MALME-3M melanoma
HCC-2998 colon = system: HCC-2998 colon

Row | Compound | TGI (CAKI-1 renal) | TGI (MDA-MB-435) | TGI (NCI/ADR-RES ovarian) | TGI (A549 NSCLC) | TGI (HS 578T breast) | TGI (SK-MEL-5 melanoma) | TGI (NCI-H226 lung) | TGI (SNB-75 CNS) | TGI (MALME-3M melanoma) | TGI (HCC-2998 colon) | GI50 (MDA-MB-435) | GI50 (CAKI-1 renal) | GI50 (MALME-3M melanoma) | GI50 (SK-MEL-5 melanoma) | GI50 (HCC-2998 colon) | GI50 (SNB-75 CNS)
1 | O=C(O)CNC(=O)c1ccc2cc(C(=O)N3CC(CCl)c4ccc([N+](=O)[O-])cc43)[nH]c2c1 (stereo unspecified) | > 100 µM | > 100 µM | > 100 µM | > 100 µM | > 100 µM | > 100 µM | > 100 µM | > 100 µM | – | – | – | – | – | – | – | –
2 | COC1=C2C=[N+](C)C3C(=C2C=CC1OC)Cc1cc2c(cc13)OCO2 (stereo unspecified) | 29.3 µM | 33.3 µM | > 100 µM | 32.4 µM | 51.2 µM | 23.2 µM | 38.4 µM | 28 µM | 18.8 µM | – | – | – | – | – | – | –
3 | COC(=O)NC(Cc1ccccc1)NC(C)=O (stereo unspecified) | > 100 µM | > 100 µM | > 100 µM | > 100 µM | > 100 µM | > 100 µM | – | > 100 µM | > 100 µM | > 100 µM | – | – | – | – | – | –
4 | Cn1ccnc1CCc1ccc(Cl)c(Cl)c1 | > 100 µM | – | – | > 100 µM | – | > 100 µM | > 100 µM | > 100 µM | > 100 µM | – | – | – | – | – | – | –
5 | COc1c(C)c(C/C=C(\C)CC/C=C(\C)CC/C=C(\C)CCC=C(C)C)c(OC)c2ccccc12 | > 100 µM | > 100 µM | > 100 µM | > 100 µM | > 100 µM | > 100 µM | – | > 100 µM | – | – | – | – | – | – | – | –
6 | CN(Cc1cnc2nc(N)nc(N)c2n1)c1ccc(C(=O)NC(CCC(=O)NC(CC(P(=O)(O)O)P(=O)(O)O)C(=O)O)C(=O)O)cc1 (stereo unspecified) | – | > 100 µM | > 100 µM | > 100 µM | > 100 µM | > 100 µM | > 100 µM | > 100 µM | > 100 µM | – | – | – | – | – | – | –
7 | CC(=O)Oc1cc(OC(C)=O)c2c(C)cc(=O)oc2c1 | – | > 100 µM | > 100 µM | > 100 µM | > 100 µM | > 100 µM | > 100 µM | > 100 µM | > 100 µM | – | – | – | – | – | – | –
8 | CCN(CC)CCOc1ccc(C(O)(Cc2ccc(OC)cc2)c2ccccc2)cc1 (stereo unspecified) | 50.9 µM | – | – | 48.5 µM | – | 26.1 µM | 77.5 µM | 27.6 µM | 33 µM | 27.5 µM | – | – | – | – | – | –
9 | C[n+]1c2ccccc2c(/C=N\NS(=O)(=O)c2ccc(Cl)cc2)c2ccccc21 | > 100 µM | – | – | > 100 µM | – | > 100 µM | > 100 µM | > 100 µM | > 100 µM | > 100 µM | – | – | – | – | – | –
10 | Nc1ccc2ccc(-c3ccc[nH]3)nc2n1 | > 100 µM | > 100 µM | > 100 µM | > 100 µM | – | > 100 µM | > 100 µM | > 100 µM | > 100 µM | > 100 µM | – | – | – | – | – | –
11 | CC1=CCC[C@H]2[C@](C)(CC3=CC(=O)C(Sc4ccccc4)=CC3=O)[C@@H](C)CC[C@]12C | 36.7 µM | 43.5 µM | 32.5 µM | 33.3 µM | – | 30.9 µM | 27.8 µM | 54.5 µM | – | 41 µM | 17.1 µM | – | – | – | – | –
12 | CC12CCC(C(=Nc3cc(C(F)(F)F)cc(C(F)(F)F)c3)C1=O)C2(C)C (stereo unspecified) | > 100 µM | > 100 µM | > 100 µM | > 100 µM | – | > 100 µM | > 100 µM | – | 69.4 µM | 73.3 µM | – | – | – | – | – | –
13 | CC(C)(C)OC(=O)N1[C@@H]2Cc3ccc(N)cc3[C@@]1(C)c1ccccc12 | > 100 µM | 33.3 µM | 51.1 µM | > 100 µM | > 100 µM | 12.4 µM | – | – | 91 µM | 47.2 µM | – | – | – | – | – | –
14 | O=C(O)CCc1ccc2c(c1)CC1(Cc3ccccc3C1)C2 | – | > 100 µM | > 100 µM | > 100 µM | > 100 µM | > 100 µM | > 100 µM | 96.4 µM | > 100 µM | > 100 µM | – | – | – | – | – | –
15 | NC(CC(O)(c1ccccc1)c1ccccc1)c1ccccc1S (stereo unspecified) | – | 28 µM | 33.5 µM | 29.5 µM | 51 µM | 25.6 µM | 29.8 µM | 28.2 µM | 54.8 µM | 50 µM | – | – | – | – | – | –
16 | COc1ccc(CNc2nc3cc(C(F)(F)F)ccc3nc2-c2ccccc2)cc1OC | 75.4 µM | > 100 µM | > 100 µM | > 100 µM | > 100 µM | 42.4 µM | – | > 100 µM | > 100 µM | 45.9 µM | – | – | – | – | – | –
17 | N[C@H](CCC(=O)NCP(=O)(O)O)C(=O)O | – | > 100 µM | > 100 µM | > 100 µM | > 100 µM | > 100 µM | – | – | > 100 µM | > 100 µM | – | – | – | – | – | –
18 | Cc1c(O)c(OC2OC(CO)C(O)C(O)C2O)cc2c1C=C[C@@H]1[C@@]2(C)C(=O)C[C@]2(C)[C@@H]([C@@](C)(O)C(=O)CCC(C)(C)O)[C@H](O)C[C@@]12C (stereo partly specified) | 36.5 µM | 66.5 µM | 69.4 µM | 83 µM | – | 43.6 µM | 62.7 µM | 62.9 µM | 50 µM | 41 µM | – | – | – | – | – | –
19 | O=[N+]([O-])c1ccc([N+]2=NC(c3ccccc3)=NN(c3ccccc3)C2)cc1 | > 100 µM | – | – | > 100 µM | – | > 100 µM | > 100 µM | > 100 µM | > 100 µM | – | – | – | – | – | – | –
20 | CCC(=O)/C(=C\I)c1ccccc1 | – | 10.4 µM | 32.2 µM | 37 µM | > 100 µM | – | 56.7 µM | 3.48 µM | 3.23 µM | – | – | – | – | – | – | –
21 | O=[N+]([O-])c1cccc(Cl)c1Oc1ccc(S(=O)(=O)/N=C(\NO)Nc2ccc(Cl)cc2)cc1 | 25.8 µM | 29.2 µM | 50.7 µM | 28.7 µM | 27.6 µM | 24.7 µM | 44.4 µM | – | 31.2 µM | 24 µM | – | – | – | – | – | –
22 | CN(C)c1ccc(/C=C/C(=O)O)cc1 | > 100 µM | – | – | > 100 µM | – | > 100 µM | > 100 µM | > 100 µM | > 100 µM | > 100 µM | – | – | – | – | – | –
23 | Cc1ccc(S(=O)(=O)N/N=C2/CCC(C(C)(C)C)CC2Br)cc1 (stereo unspecified) | 69.1 µM | 51.8 µM | 36.5 µM | > 100 µM | 47.1 µM | 29.5 µM | 34 µM | 87 µM | 31.2 µM | – | – | – | – | – | – | –
24 | Clc1ccc(C2CC(c3cccc(Nc4ccncc4)c3)=NN2c2cc(Cl)cc(Cl)c2)cc1 (stereo unspecified) | 3.13 µM | 3.16 µM | – | – | – | 3.38 µM | – | 2.93 µM | 3.68 µM | 3.04 µM | 1.71 µM | 1.61 µM | 1.77 µM | 1.83 µM | 1.56 µM | 1.4 µM
